Laboratory results: patent publication US20250296953A1, “3,4-THIAZOLO-STEROIDS AND METHODS OF MAKING AND USING THE SAME” (Arkansas State University - Jonesboro, priority 2018, published 2025)

Assays:
Test in all cases: Melanoma cytotoxicity assay (resazurin)
Type in all cases: cell-based
LOX IMVI = LOX IMVI melanoma cells, resazurin; for LOX-IMVI (% inhibition): 24 hours with compound, concentration not given; for IC50: Homo sapiens, 24 hours
Procedure: (§1) Cytotoxicity Assay: Melanoma cells (˜4000 cells in each well) were incubated in a 96 well plates at 37° C. in 5% CO2 for 24 hours. Compounds were added in triplicates and the plate was further incubated for 24 hours. DMSO and dacarbazine were added as technical and positive controls respectively. Next day resazurin was added and the plate was further incubated for 6 hours followed by reading the plate at 544 nm (excitation) and 590 nm (emission) using BMG Labtech Fluostar Optima plate reader. IC50 values were determined by using Graphpad Prism.
(§2) On day 1, the cell line trypsinized and centrifuged to form cell pellet. The pellet was diluted in media, then counted using Countess automated cell counter. Approximately 4000 cells (198 uL) per well plated in […]. A control well of 200 uL growth media was also prepared. Wells closest to plate perimeter were filled with 200 uL PBS to prevent inner well evaporation. The 96 well plates are incubated in 37° C. incubator at 5% CO2 for 24 hours.
(§3) On day 2, compounds were added (in triplicate) along with DMSO/Dacarbazine controls (2 uL) added to bring wells to volume of 200 μL. The 96 well plates are incubated in 37° C. incubator at 5% CO2 for 24 hours.
(§4) On day 3, 40 μL of 0.15 mg/ml reszurin solution added to wells. Samples were placed in a 37° C. incubator at 5% CO2 for 6 hours. Excitation and emission for fluorescence measured at 544 nm and 590 nm using BMG Labtech Fluostar Optima plate reader
(§5) Percent viability determined by taking average of each triplicate well fluorescence and subtracting GM well reading to remove the background signal. This difference is then divided by the average of the negative control (DMSO) wells to determine percent viability.
(§6) IC50s were determined by using cereal dilution of compound to determine viability. Viabilities and concentration of cells are analyzed in Graphpad Prism by creating sigmoidal curve graph, which will determine the IC50 concentration.
(§7) We analyzed the ability of the thiazole-androstane derivatives to inhibit growth in various melanoma cell lines. The growth inhibition against melanoma cell lines of various compound is shown below in Tables 19 and 20. Inhibition results are reported as the IC50 concentration in μM of the indicated compound or as the percent viability […] of the indicated compound. NA=not available.

SK-MEL-28 = SK-MEL-28 melanoma cells, resazurin; for IC50: Homo sapiens, 24 hours; for SK-MEL-28 (% inhibition): 24 hours with compound, concentration not given
Procedure: as §1, §2, §3, §4, §5, §6, §7

SK-MEL-5 = SK-MEL-5 melanoma cells, 24 hours with compound, resazurin; concentration not given
Procedure: as §1, §2, §3, §4, §5, §6, §7

SK-MEL-25 = SK-MEL-25 melanoma cells, resazurin; for IC50: Homo sapiens, 24 hours, read-out: SK-MEL-25 (IC50); for SK-MEL-25 (% inhibition): 24 hours with compound, concentration not given
Procedure: as §1, §2, §3, §4, §5, §6, §7

SMILES | LOX-IMVI (% inhibition) (LOX IMVI) [%] | IC50 (SK-MEL-28) [µM] | SK-MEL-28 (% inhibition) (SK-MEL-28) [%] | IC50 (LOX IMVI) [µM] | SK-MEL-5 (% inhibition) (SK-MEL-5) [%] | IC50 (SK-MEL-25) [µM] | SK-MEL-25 (% inhibition) (SK-MEL-25) [%]
C[C@]12CCc3nc(-c4cc(Cl)cc(Cl)c4)sc3C1=CC[C@@H]1[C@@H]2CC[C@]2(C)C(=O)CC[C@@H]12 [II.25] | 89 |  |  |  |  |  | 
C[C@]12CCc3nc(-c4ccc(O)cc4)sc3C1=CC[C@@H]1[C@@H]2CC[C@]2(C)C(=O)CC[C@@H]12 [II.4, (1S,2R,13R,14S,18S)-7-(4-hydroxy)-2,18-dimethyl-8-thia-6-azapentacyclo[11.7.0.02,10.05,9.014,18]icosa-5(9),7,10-trien-17-one] | 16 |  |  |  |  |  | 
C[C@]12CCc3sc(Nc4ccccc4Cl)nc3C1=CC[C@@H]1[C@@H]2CC[C@]2(C)C(=O)CC[C@@H]12 [IIa.11, (1S,2R,13R,14S,18S)-7-(2-chloroanilino)-2,18-dimethyl-6-thia-8-azapentacyclo[11.7.0.02,10.05,9.014,18]icosa-5(9),7,10-trien-17-one] |  | > 20 | 88 | 12 | 84 | 9 | 96
C[C@]12CCc3sc(Nc4ccc(C(=O)O)cc4)nc3C1=CC[C@@H]1[C@@H]2CC[C@]2(C)C(=O)CC[C@@H]12 [IIa.23, 4-[[(1S,2R,13R,14S,18S)-2,18-dimethyl-17-oxo-6-thia-8-azapentacyclo[11.7.0.02,10.05,9.014,18]icosa-5(9),7,10-trien-7-yl]amino]benzoic acid] |  |  | 78 |  | 43 |  | 71
C[C@]12CCc3nc(-c4ccccc4O)sc3C1=CC[C@@H]1[C@@H]2CC[C@]2(C)C(=O)CC[C@@H]12 [II.11] | 35 |  |  |  |  |  | 
CC(=O)Nc1nc2c(s1)C1=CC[C@@H]3[C@H](CC[C@]4(C)C(=O)CC[C@@H]34)[C@@]1(C)CC2 [IIb.1, N-[(1S,2R,13R,14S,18S)-2,18-dimethyl-17-oxo-8-thia-6-azapentacyclo[11.7.0.02,10.05,9.014,18]icosa-5(9),6,10-trien-7-yl]acetamide] |  |  | 16 |  | 5 |  | 31
C[C@]12CCc3sc(Nc4ccccc4[N+](=O)[O-])nc3C1=CC[C@@H]1[C@@H]2CC[C@]2(C)C(=O)CC[C@@H]12 [IIa.13, (1S,2R,13R,14S,18S)-2,18-dimethyl-7-(2-nitroanilino)-6-thia-8-azapentacyclo[11.7.0.02,10.05,9.014,18]icosa-5(9),7,10-trien-17-one] |  |  | 6 |  | 36 |  | 58
CCOc1cccc(-c2nc3c(s2)C2=CC[C@@H]4[C@H](CC[C@]5(C)C(=O)CC[C@@H]45)[C@@]2(C)CC3)c1 [II.23] | 52 |  |  |  |  |  | 
CCNc1nc2c(s1)CC[C@@]1(C)C2=CC[C@@H]2[C@@H]1CC[C@]1(C)C(=O)CC[C@@H]21 [IIa.30, (1S,2R,13R,14S,18S)-7-(ethylamino)-2,18-dimethyl-6-thia-8-azapentacyclo[11.7.0.02,10.05,9.014,18]icosa-5(9),7,10-trien-17-one] |  |  | 67 |  | 26 |  | 4
C[C@]12CCc3nc(-c4cccc(O)c4)sc3C1=CC[C@@H]1[C@@H]2CC[C@]2(C)C(=O)CC[C@@H]12 [II.17, (1S,2R,13R,14S,18S)-7-(3-hydroxy)-2,18-dimethyl-8-thia-6-azapentacyclo[11.7.0.02,10.05,9.014,18]icosa-5(9),7,10-trien-17-one] | 17 |  |  |  |  |  | 
COc1ccc(OC)c(Nc2nc3c(s2)CC[C@@]2(C)C3=CC[C@@H]3[C@@H]2CC[C@]2(C)C(=O)CC[C@@H]32)c1 [IIa.16, (1S,2R,13R,14S,18S)-7-(2,5-dimethoxyanilino)-2,18-dimethyl-6-thia-8-azapentacyclo[11.7.0.02,10.05,9.014,18]icosa-5(9),7,10-trien-17-one] |  |  | 86 |  | 81 |  | 70
Cc1ccc(Nc2nc3c(s2)CC[C@@]2(C)C3=CC[C@@H]3[C@@H]2CC[C@]2(C)C(=O)CC[C@@H]32)cc1 [IIa.32, (1S,2R,13R,14S,18S)-2,18-dimethyl-7-(4-methylanilino)-6-thia-8-azapentacyclo[11.7.0.02,10.05,9.014,18]icosa-5(9),7,10-trien-17-one] |  | > 20 | 63 | 9 |  | 5 | 87
C[C@]12CCc3sc(Nc4ccccn4)nc3C1=CC[C@@H]1[C@@H]2CC[C@]2(C)C(=O)CC[C@@H]12 [IIa.21, (1S,2R,13R,14S,18S)-2,18-dimethyl-7-(2-pyridylamino)-6-thia-8-azapentacyclo[11.7.0.02,10.05,9.014,18]icosa-5(9),7,10-trien-17-one] |  |  | 93 |  | 88 |  | 58
C[C@]12CCc3sc(Nc4ccccc4F)nc3C1=CC[C@@H]1[C@@H]2CC[C@]2(C)C(=O)CC[C@@H]12 [IIa.33, (1S,2R,13R,14S,18S)-7-(2-fluoroanilino)-2,18-dimethyl-6-thia-8-azapentacyclo[11.7.0.02,10.05,9.014,18]icosa-5(9),7,10-trien-17-one] |  |  | 66 |  | 87 |  | 77
COc1ccc(Cl)cc1Nc1nc2c(s1)CC[C@@]1(C)C2=CC[C@@H]2[C@@H]1CC[C@]1(C)C(=O)CC[C@@H]21 [IIa.20, (1S,2R,13R,14S,18S)-7-(5-chloro-2-methoxy-anilino)-2,18-dimethyl-6-thia-8-azapentacyclo[11.7.0.02,10.05,9.014,18]icosa-5(9),7,10-trien-17-one] |  |  | 95 |  | 70 |  | 83
C=CCNc1nc2c(s1)CC[C@@]1(C)C2=CC[C@@H]2[C@@H]1CC[C@]1(C)C(=O)CC[C@@H]21 [IIa.3, (1S,2R,13R,14S,18S)-7-(allylamino)-2,18-dimethyl-6-thia-8-azapentacyclo[11.7.0.02,10.05,9.014,18]icosa-5(9),7,10-trien-17-one] |  |  | 65 |  | 57 |  | 68
CCCCNC1=NC2C3=CC[C@@H]4[C@H](CC[C@]5(C)C(=O)CC[C@@H]45)[C@@]3(C)CCC2S1 (stereo partly drawn) [IIa.31, (1S,2R,13R,14S,18S)-7-(butylamino)-2,18-dimethyl-6-thia-8-azapentacyclo[11.7.0.02,10.05,9.014,18]icosa-7,10-dien-17-one] |  |  | 93 |  | 69 |  | 74
COc1ccccc1Nc1nc2c(s1)CC[C@@]1(C)C2=CC[C@@H]2[C@@H]1CC[C@]1(C)C(=O)CC[C@@H]21 [IIa.15, (1S,2R,13R,14S,18S)-7-(2-methoxyanilino)-2,18-dimethyl-6-thia-8-azapentacyclo[11.7.0.02,10.05,9.014,18]icosa-5(9),7,10-trien-17-one] |  |  | 13 |  | 76 |  | 67
C[C@]12CCc3sc(Nc4ncccn4)nc3C1=CC[C@@H]1[C@@H]2CC[C@]2(C)C(=O)CC[C@@H]12 [IIa.22, (1S,2R,13R,14S,18S)-2,18-dimethyl-7-(pyrimidin-2-ylamino)-6-thia-8-azapentacyclo[11.7.0.02,10.05,9.014,18]icosa-5(9),7,10-trien-17-one] |  |  | 4 |  | 15 |  | 3
COc1cccc(-c2nc3c(s2)C2=CC[C@@H]4[C@H](CC[C@]5(C)C(=O)CC[C@@H]45)[C@@]2(C)CC3)c1 [II.9, (1S,2R,13R,14S,18S)-7-(3-methoxyphenyl)-2,18-dimethol-8-thia-6-azapentacyclo[11.7.0.02,10.05,9.014,18]icosa-5(9),7,10-trien-17-one] | 13 |  |  |  |  |  | 
C[C@]12CCc3nc(Nc4ccc(F)cc4)sc3C1=CC[C@@H]1[C@@H]2CC[C@]2(C)C(=O)CC[C@@H]12 [IIa.9, (1S,2R,13R,14S,18S)-7-(4-fluoroanilino)-2,18-dimethyl-8-thia-6-azapentacyclo[11.7.0.02,10.05,9.014,18]icosa-5(9),6,10-trien-17-one] |  |  | 90 |  | 58 |  | 61
